Where a name gives a salt, the structure may show the parent alone.
Legend:
[1] = test system: rabbit cornea (intraocular enzymes); type: in vivo; settings: topical, 2% (w/v) aqueous solution
Experimental: The tissue was homogenized in an alkaline buffer (pH 10.0) to give 10% (w/v) homogenate, and extracted twice with equal volumes of methylene chloride/diethyl ether mixture (1:4, v/v) by shaking for 15 minutes. The organic layer was separated, then re-extractedwith an equal volume of aqueous 0.1M hydrochloric acid solution. The aqueous phase was made alkaline (pH 10.0) and extracted with methylene chloride/diethyl ether, the organic layer was transferred to a deactivated glass vial, and the solvent was evaporated at reduced pressure under nitrogen stream. The residue was dissolved in 0.01M hydrochloric acid solution and analyzed by high-performance liquid chromatography (HPLC). A Supelcosil LC-8-DB analytical column (7.5 cm×4.6 mm i.d., 3 μm particle size) and mobile phase (1.5 mL/min flow rate) consisting of 30% acetonitrile in an aqueous buffer solution of 0.02M monobasic potassium phosphate (adjusted to pH 3.0 with phosphoric acid) and 0.01 (v/v) triethylamine. UV detection at 280 nm was applied. […] The same experiment was carried out by administering 1-(isopropylamino)-3-(2-allylphenoxy)-2-propanone oxime hydrochloride salt in 2% (w/v) aqueous solution. […]

[2] = test system: resting heart rate of rats; experiment: Effect on resting heart rate in rats; type: in vivo, rat (male Sprague-Dawley); settings: 6 mg/kg i.v. (Example 6)
Experimental: (§1) Groups of seven male Sprague-Dawley rats weighing 150-250 g were used. Each animal was anesthetized with sodium pentobarbital (50 mg/kg) and the jugular vein was cannulated with PE50 tubing. This cannula was subcutaneously threaded around the neck and exteriorized dorsally. The cannula was filled with heparin solution ([…]) and sealed with a solid 22-gauge stylet. Animals were housed in individual stainless steel cages and at least 24 hours were allowed for recovery from the surgery. Food and water were provided ad libitum. On the day of the experiment, the heart rate of each rat was monitored with a plethsmograph and the data recorded on a Physioscribe II recorder. One hour was allowed as an equilibration period before any drugs were administered. Drugs were dissolved in normal saline as 0.3% solution and were administered intravenously at a dose of 6 mg/kg. The resting heart rate was then recorded after 1, 3, 5, 10 and 15 minutes following i.v. injection. […] A control group of seven animals was intravenously administered saline solution and was treated exactly in the same manner as the drug-treated groups. The significance of the difference between the effect of saline solution and the drugs under investigation on the resting heart rate and on isoprenaline tachycardia was analyzed using the student's "t" test. Values are given as mean ±S.E. of the mean. […] (.) carteolol HCl, 1c; .circle. propranolone ketoxime HCl, 6a; (.gradient.) timolone ketoxime oxalate, 6b; (Δ) N-isopropyl timolone ketoxime HCl, 6d; carteolone oxime HCl, 6c; and (---) saline solution. […] Drugs were administered to groups of 5 rats using a stomach tube and the heart rate was recorded for 1 hour. […] A control group of 5 rats was treated exactly in the same manner after the oral administration of the appropriate volume of saline solution.

[3] = test system: isoprenaline-induced tachycardia; experiment: Effect on isoprenaline-induced tachycardia in rats (β-adrenergic antagonist activity); type: in vivo, rat (male Sprague-Dawley); settings: for β-antagonist activity: dose levels used; for β-adrenergic antagonist activity against isoprenaline-tachycardia: rats, 6 mg/kg i.v., isoprenaline 50 μg/kg s.c., FIG. 1
Experimental: as §1

[4] = test system: Intraocular Pressure (IOP) of Rabbits; experiment: Effect on the Intraocular Pressure (IOP) of Rabbits; type: in vivo, rabbit (male New Zealand albino); settings: for ocular hypotensive activity (in words): topical, rabbits, dose levels used
Experimental: The animals were kept in individual cages with free access to food and water. Intraocular pressure was measured using a Digilab model 30R pneumatonometer. The pneumatonometer readings were checked at least twice a day using the Digilab calibration verifier. All measurements were obtained from unrestrained, unanesthetized rabbits. One drop of 0.5% propacaine (Ophthetic-Allergen Pharmaceuticals, Inc.) diluted 1:2 with saline was instilled in each eye immediately prior to IOP measurement. Drugs were administered as 1 or 2.5% solution in buffer pH 7.4 or in saline in both eyes of a group of at least four rabbits. Another group of at least three rabbits served as control and was administered the carrier only. […] Values are given as means ± standard error (S.E.) of the mean. The significance of the change was determined using the student's t-test.

C=CCc1ccccc1OCC(CNC(C)C)=NO.Cl [1-(isopropylamino)-3-(2-allylphenoxy)-2-propanone oxime hydrochloride]
metabolites identified in cornea [1]: showed the presence of the two oxime isomers, the corresponding ketone 1-(isopropylamino)-3-(2-allylphenoxy)-2-propanone, and the β-adrenergic blocker 1-(isopropylamino)-3-(2-allylphenoxy)-2-propanol(alprenolol)

CC(C)(C)NCC(O)COc1cccc2c1CCC(=O)N2 (stereo not shown) [Compound 1c, reference compound]
activity on resting heart rate (negative chronotropic action) [2]: lowest activity on the heart rate of rats

CC(C)(C)NCC(COc1cccc2c1CCC(=O)N2)=NO [Compound 6c, 5-[3-(tert-Butylaminno)-2-(hydroxyimino)propoxy]-3,4-dihydrocarbostyril Hydrochloride]
activity on resting heart rate (negative chronotropic action) [2]: less active
β-antagonist activity [3]: some β-antagonist activity
β-adrenergic antagonist activity against isoprenaline-tachycardia [3]: least active
ocular hypotensive activity (in words) [4]: low activity at the dose levels used

CC(C)NCC(COc1nsnc1N1CCOCC1)=NO.Cl [Compound 6d, 1-(Isopropylamino)-3-[(4-morpholino-1,2,5-thiadiazol-3-yl)oxy]-2-propanone oxime Hydrochloride]
activity on resting heart rate (negative chronotropic action) [2]: less active
β-antagonist activity [3]: some β-antagonist activity
β-adrenergic antagonist activity against isoprenaline-tachycardia [3]: least active
activity ([4]; selected dosage level): inactive at the selected dosage level
ocular hypotensive activity (in words) [4]: low activity at the dose levels used

CC(C)NCC(O)COc1cccc2ccccc12 (stereo not shown) [Propranolol HCl 1a, reference compound]
% change after treatment (IOP) ([4]; 1% solution, 30 min.): -9.10%
IOP, treated ([4]; 1% solution, 30 min.): 28.0 ± 0.56 mm/Hg
% change after treatment (IOP) ([4]; 1% solution, 60 min.): -10.39%
IOP, treated ([4]; 1% solution, 60 min.): 27.6 ± 0.62 mm/Hg
% change after treatment (IOP) ([4]; 1% solution, 2 hrs.): -5.52%
IOP, treated ([4]; 1% solution, 2 hrs.): 29.1 ± 0.38 mm/Hg
% change after treatment (IOP) ([4]; 1% solution, 3 hrs.): -11.04%
IOP, treated ([4]; 1% solution, 3 hrs.): 27.4 ± 0.54 mm/Hg
% change after treatment (IOP) ([4]; 1% solution, 4 hrs.): -8.44%
IOP, treated ([4]; 1% solution, 4 hrs.): 28.2 ± 0.48 mm/Hg
% change after treatment (IOP) ([4]; 1% solution, 6 hrs.): -5.84%
IOP, treated ([4]; 1% solution, 6 hrs.): 29.0 ± 0.45 mm/Hg
% change after treatment (IOP) ([4]; 1% solution, 8 hrs.): -1.95%
IOP, treated ([4]; 1% solution, 8 hrs.): 30.2 ± 0.43 mm/Hg
% change after treatment (IOP) ([4]; 1% solution, time zero): 0.00%
IOP, treated ([4]; 1% solution, time zero): 30.8 ± 0.40 mm/Hg
% change after treatment (IOP) ([4]; 2.5% solution, 30 min.): +8.66%
IOP, treated ([4]; 2.5% solution, 30 min.): 27.6 ± 0.56 mm/Hg
% change after treatment (IOP) ([4]; 2.5% solution, 60 min.): +9.84%
IOP, treated ([4]; 2.5% solution, 60 min.): 27.9 ± 0.60 mm/Hg
% change after treatment (IOP) ([4]; 2.5% solution, 2 hrs.): +1.18%
IOP, treated ([4]; 2.5% solution, 2 hrs.): 25.7 ± 0.55 mm/Hg
% change after treatment (IOP) ([4]; 2.5% solution, 3 hrs.): +1.18%
IOP, treated ([4]; 2.5% solution, 3 hrs.): 25.7 ± 0.39 mm/Hg
% change after treatment (IOP) ([4]; 2.5% solution, 4 hrs.): +0.79%
IOP, treated ([4]; 2.5% solution, 4 hrs.): 25.6 ± 0.46 mm/Hg
% change after treatment (IOP) ([4]; 2.5% solution, 6 hrs.): 0.00%
IOP, treated ([4]; 2.5% solution, 6 hrs.): 25.4 ± 0.54 mm/Hg
% change after treatment (IOP) ([4]; 2.5% solution, 8 hrs.): -0.79%
IOP, treated ([4]; 2.5% solution, 8 hrs.): 25.2 ± 0.68 mm/Hg
% change after treatment (IOP) ([4]; 2.5% solution, time zero): 0.00%
IOP, treated ([4]; 2.5% solution, time zero): 25.4 ± 0.56 mm/Hg
